Data taken from PMC6211276, “Computer-aided molecular design of pyrazolotriazines targeting glycogen synthase kinase 3” (Journal of Enzyme Inhibition and Medicinal Chemistry, 2018).

Tests used:
GSK-3β [1] = target: T1, GSK-3β (Homo sapiens, UniProt P49841); experiment: Inhibition of GSK-3β (Kinase-Glo luminescent assay); assay type: biochemical; parameters: purchased Millipore (Millipore Ibérica SAU); conditions: for GSK-3 inhibition at a fixed compound concentration: fixed compound concentration of 10 μM; for IC50: mean of three independent determinations, 1 μM ATP
T1 sequence (P49841 whole entry): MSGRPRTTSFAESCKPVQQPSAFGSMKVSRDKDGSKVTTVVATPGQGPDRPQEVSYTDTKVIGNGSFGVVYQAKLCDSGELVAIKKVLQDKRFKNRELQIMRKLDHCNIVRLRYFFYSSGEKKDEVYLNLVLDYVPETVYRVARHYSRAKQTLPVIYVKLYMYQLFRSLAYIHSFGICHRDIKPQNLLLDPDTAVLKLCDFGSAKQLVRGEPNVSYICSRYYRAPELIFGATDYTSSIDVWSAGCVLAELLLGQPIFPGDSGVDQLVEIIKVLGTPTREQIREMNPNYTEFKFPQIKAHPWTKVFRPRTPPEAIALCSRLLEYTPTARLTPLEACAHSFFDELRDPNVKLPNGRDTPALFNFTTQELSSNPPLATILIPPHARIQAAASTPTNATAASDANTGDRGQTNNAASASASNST
Method: Human recombinant GSK-3β and the pre-phosphorylated polypeptide substrate were purchased from Millipore (Millipore Ibérica SAU). Kinase-Glo Luminescent Kinase Assay was obtained from Promega (Promega Biotech Ibérica, SL)[29]. ATP and all other reagents were from Sigma Aldrich (St. Louis, MO). Assay buffer contained 50 mM HEPES (pH 7.5), 1 mM EDTA, 1 mM EGTA, and 15 mM magnesium acetate.
The method of Baki et al. was followed to analyse the inhibition of GSK-3β[30]. Kinase-Glo assays were performed in assay buffer using black 96-well plates. In a typical assay, 10 μL (10 μM) of test compound (dissolved in dimethyl sulfoxide [DMSO] at 1 mM concentration and diluted in advance in assay buffer to the desired concentration) and 10 μL (20 ng) of enzyme were added to each well followed by 20 μL of assay buffer containing 25 μM substrate and 1 μM ATP. […] After 30 min incubation at 30 °C, the enzymatic reaction was stopped with 40 μL of Kinase-Glo reagent. Glow-type luminescence was recorded after 10 min using a FLUOstar Optima (BMG Labtechnologies GmbH, Offenburg, Germany) multimode reader. The activity is proportional to the difference of the total and consumed ATP. The inhibitory activities were calculated based on maximal activities measured in the absence of inhibitor.

[2] = In vitro parallel artificial membrane permeability assay (PAMPA-BBB); conditions: for Papp at 4 h: pig, PAMPA, pH 7.4; for BBB prediction: predictive penetration in the CNS from PAMPA-BBB Pe; for ability to cross the BBB by passive permeation: prediction from PAMPA-BBB Pe
Method: Prediction of the brain penetration was evaluated using a parallel artificial membrane permeability assay (PAMPA). Ten commercial drugs, phosphate buffer saline solution at pH 7.4 (PBS), ethanol, and dodecane were purchased from Sigma Aldrich, Across organics and Fluka. […] Filter PDVF membrane units (diameter 30 mm, pore size 0.45 μm) from Symta were used to filter the samples. A 96-well plate UV, (Thermoscientific, Varioskan Lux multimode microplate reader) was used for the UV measurements. […] Then 100 μL of this compound stock solution was taken, and 1400 μL of ethanol and 3500 μL of PBS pH 7.4 buffer were added to reach 30% of ethanol concentration in the experiment. These solutions were filtered. The acceptor 96-well microplate was filled with 180 μL of PBS:ethanol (70:30). The donor 96-well plate was coated with 4 μL of porcine brain lipid in dodecane (20 mg mL^−1), and after 5 min, 180 μL of each compound solution was added. Then 1−2 mg of every compound to be determined for their ability to pass the brain barrier were dissolved in 1500 μL of ethanol and 3500 μL of PBS pH 7.4 buffer, filtered, and then added to the donor 96-well plate. […] During this time, the compounds diffused from the donor plate through the brain lipid membrane into the acceptor plate. After incubation, the donor plate was removed. The concentration of compounds and commercial drugs in the acceptor and the donor wells was determined by UV plate reader. Every sample was analysed at three to five wavelengths, in three wells and in three independent runs. […] Ten quality control compounds (previously mentioned) of known BBB permeability were included in each experiment to validate the analysis set.

GSK-3β [3] = target: T1, GSK-3β; experiment: Kinetic studies on GSK-3β (ADP-Glo Kinase Assay, varying ATP); assay type: biochemical; conditions: inhibitor at 0.5 and 1 μM, ATP 1 to 50 μM, GS-2 constant at 12.5 μM; Lineweaver–Burk
Method: To investigate the inhibitory mechanism of compounds 5 on GSK-3β, several kinetic experiments were performed using the ADP-Glo Kinase Assay. Kinetic experiments varying both ATP (from 1 to 50 μM) and the inhibitor (at 0.5 and 1 μM) concentrations were performed, while the concentration of GS-2 was kept constant at 12.5 μM.

SH-SY5Y cells = experiment: Okadaic acid-induced tau hyperphosphorylation cell model (MTT cell viability); assay type: cell-based, human; conditions: for cell viability (MTT test) in OA-induced neurodegeneration cell model: compound 10 µM for 1 h, then OA 30 nM for 24 h
Method: Human SH-SY5Y cells were grown in DMEM supplemented with 10% FBS and 1% penicillin/streptomycin at 37 °C and 5% CO2 in an incubator. SH-SY5Y cells were seeded onto 96-well plate at 60.000 cells per well. 48 h later, cells were pre-incubated with the compounds at the desired concentration for 1 h and after that time okadaic acid (OA) (Sigma Aldrich, catalogue no: 09381) was added at a concentration of 30 nM and incubated for another 24 h. Afterwards, cells were incubated with 0.5 mg mL^−1 MTT solution for at least 4 h at 37 °C and 5% CO2. Then culture media was removed and the formazan crystals attached to the bottom of the plate were dissolved with 200 µL of DMSO. Finally, UV-absorbance was measured at 595 nm in a microplate reader (Varioskan Flash Microplate reader, Thermo Scientific).

[4] = PAMPA-BBB, reported permeability; cited from earlier work

## O=c1[nH]nnc2c1cnn2-c1ccccc1 [4a]
GSK-3β [1]
  GSK-3 inhibition at a fixed compound concentration: inactive

## O=c1[nH]nnc2c1cnn2-c1ccc(F)cc1 [4e]
GSK-3β [1]
  GSK-3 inhibition at a fixed compound concentration: inactive

## CCOC(=O)c1c2nn[nH]c(=O)c2nn1-c1ccccc1 [5a, ethyl 4-oxo-6-phenyl-4,6-dihydro-3H-pyrazolo[4,3-d][1,2,3]triazine-7-carboxylate]
GSK-3β [1]
  IC50: 4 ± 0.2 µM
other
  melting point: 191.5 to 193 °C
[2]
  Papp at 4 h: 1.1 ± 0.6 ×10⁻⁶ cm/s
  BBB prediction: CNS−

## CCOC(=O)c1c2nn[nH]c(=O)c2nn1-c1ccc(C)cc1 [5b, ethyl 4-oxo-6-(p-tolyl)-4,6-dihydro-3H-pyrazolo[4,3-d][1,2,3]triazine-7-carboxylate]
GSK-3β [3]
  type of inhibition on GSK-3: ATP-competitive
GSK-3β [1]
  IC50: 0.9 ± 0.1 µM
other
  melting point: 193 to 196 °C
[2]
  Papp at 4 h: 2.3 ± 0.3 ×10⁻⁶ cm/s
  BBB prediction: CNS+/−
SH-SY5Y cells
  cell viability (MTT test) in OA-induced neurodegeneration cell model: able to increase the cell viability

## CCOC(=O)c1c2nn[nH]c(=O)c2nn1-c1ccc(OC)cc1 [5c, ethyl 6-(4-methoxyphenyl)-4-oxo-4,6-dihydro-3H-pyrazolo[4,3-d][1,2,3]triazine-7-carboxylate]
GSK-3β [1]
  IC50: 1.7 ± 0.3 µM
other
  melting point: 194 °C (dec.)
[2]
  Papp at 4 h: 1.6 ± 0.5 ×10⁻⁶ cm/s
  BBB prediction: CNS+/−

## CCOC(=O)c1c2nn[nH]c(=O)c2nn1-c1ccc(Cl)cc1 [5e, ethyl 6-(4-chlorophenyl)-4-oxo-4,6-dihydro-3H-pyrazolo[4,3-d][1,2,3]triazine-7-carboxylate]
GSK-3β [1]
  IC50: 3.3 ± 0.3 µM
other
  melting point: 198 °C (dec.)
[2]
  Papp at 4 h: 2.9 ± 0.7 ×10⁻⁶ cm/s
  ability to cross the BBB by passive permeation: in the limit of a positive prediction
  BBB prediction: CNS+/−

## CCOC(=O)c1c2nn[nH]c(=O)c2nn1-c1ccc(Br)cc1 [5f, ethyl 6-(4-bromophenyl)-4-oxo-4,6-dihydro-3H-pyrazolo[4,3-d][1,2,3]triazine-7-carboxylate]
GSK-3β [1]
  IC50: 1.4 ± 0.4 µM
other
  melting point: 195 °C (dec.)
[2]
  Papp at 4 h: 3.2 ± 0.1 ×10⁻⁶ cm/s
  ability to cross the BBB by passive permeation: would be able to cross the BBB by passive permeation
  BBB prediction: CNS+ (CNS + when they present a permeability >3.1 × 10^−6 cm s^−1)
SH-SY5Y cells
  cell viability (MTT test) in OA-induced neurodegeneration cell model: able to increase the cell viability

## CCOC(=O)c1c2nn[nH]c(=O)c2nn1-c1ccc(I)cc1 [5g, ethyl 6-(4-iodophenyl)-4-oxo-4,6-dihydro-3H-pyrazolo[4,3-d][1,2,3]triazine-7-carboxylate]
GSK-3β [1]
  IC50: 0.8 ± 0.2 µM
other
  melting point: 198 °C (dec.)
[2]
  Papp at 4 h: 5 ± 1 ×10⁻⁶ cm/s
  ability to cross the BBB by passive permeation: would be able to cross the BBB by passive permeation
  BBB prediction: CNS+ (CNS + when they present a permeability >3.1 × 10^−6 cm s^−1)
SH-SY5Y cells
  cell viability (MTT test) in OA-induced neurodegeneration cell model: able to increase the cell viability

## Cn1c(=O)c2c(ncn2C)n(C)c1=O [Caffeine, reference compound]
[2]
  Papp at 4 h: 1.1 ± 0.4 ×10⁻⁶ cm/s

## CNCCCN1c2ccccc2CCc2ccccc21 [Desipramine, reference compound]
[2]
  Papp at 4 h: 10.4 ± 0.1 ×10⁻⁶ cm/s

## CCn1cc(C(=O)O)c(=O)c2cc(F)c(N3CCNCC3)nc21 [Enoxacine, reference compound]
[2]
  Papp at 4 h: 1.1 ± 0.6 ×10⁻⁶ cm/s

## C=C1[C@@H](O)[C@@H]2O[C@]3(CC[C@H](/C=C/[C@@H](C)[C@@H]4CC(C)=C[C@@]5(O[C@H](C[C@@](C)(O)C(=O)O)CC[C@H]5O)O4)O3)CC[C@H]2O[C@@H]1[C@@H](O)C[C@H](C)[C@H]1O[C@@]2(CCCCO2)CC[C@H]1C [OA, okadaic acid, reference compound]
SH-SY5Y cells; OA at 30 nM, MTT
  decrease in cell viability: higher than 70%

## CN1C(C(=O)Nc2ccccn2)=C(O)c2ccccc2S1(=O)=O [Piroxicam]
[4]
  Pe bibli.: 2.5 10^−6 cm s^−1

## CN(C)CCCN1c2ccccc2Sc2ccccc21 [Promazine, reference compound]
[4]
  Pe bibli.: 8.8 10^−6 cm s^−1
[2]
  Papp at 4 h: 8.4 ± 0.3 ×10⁻⁶ cm/s

## Cn1sc(=O)n(Cc2ccccc2)c1=O [TDZD-8, reference compound]
SH-SY5Y cells
  cell viability (MTT test) in OA-induced neurodegeneration cell model: increase the cell viability
